Source: publication PMC7782499, “Progerinin, an optimized progerin-lamin A binding inhibitor, ameliorates premature senescence phenotypes of Hutchinson-Gilford progeria syndrome” (Communications Biology, 2021)

Key:
[1] = Plasma protein binding, human; type: in vitro ADME; conditions: human, plasma
Experimental: (§1) At pre-set time-points, blood concentration of JH4 was determined by LC-MS/MS analysis[22],[23]. Other chemicals were also tested using similar protocol. In vitro ADME studies (plasma protein binding, CYP inhibition, microsomal stability, plasma stability, and hERG inhibition) were performed by New Drug Development Center (Daegu, Korea) using standard protocols[24],[25].

[2] = Liver microsomal stability, mouse; type: in vitro ADME; conditions: liver microsomes, read-out: Liver microsomal stability (% remaining during 30min)
Experimental: as §1, with “For PK analysis, 5 mg/kg of JH4 in 10% DMSO, 5% […] solution were intravenously injected and 10 mg/kg of JH4 in 10% NMP and 90% PEG400 solution were orally delivered. At” for “At”

[3] = Pharmacokinetic analysis of SLC-D011 dissolved in monoolein-based solution, oral; type: in vivo; design: unit not given here
Experimental: (§2) Fig. S9. In vitro ADME results of SLC-D011 via oral administration. A. Formulation for complete dissolution. Due to its extremely hydrophobic property, SLC-D011 was not dissolved in water solution (left). To overcome this problem, several edible solutions were tested and monoolein- based solution was selected as a dissolving solution (right). B. SLC-D011 was very stable in solution. For complete dissolution, heating at 80℃ and sonication step were required. However, SLC -D011 was not broken despite of heating […]
(§3) and sonication. […] C and D.
(§4) Pharmacokinetic analysis of SLC -D011dissolved in monoolein- based solution.

[4] = Solubility and stability of SLC-D011 in water and monoolein-based solution; type: physicochemical
Experimental: as §2, §3, §4

Plasma stability, human = type: in vitro ADME
Experimental: as §1, with “For PK analysis, 5 mg/kg of JH4 in 10% DMSO, 5% […] solution were intravenously injected and 10 mg/kg of JH4 in 10% NMP and 90% PEG400 solution were orally delivered. At” for “At”

Plasma stability, rat = type: in vitro ADME
Experimental: as §1, with “For PK analysis, 5 mg/kg of JH4 in 10% DMSO, 5% […] solution were intravenously injected and 10 mg/kg of JH4 in 10% NMP and 90% PEG400 solution were orally delivered. At” for “At”

CYP2C19 = CYP2C19 (Homo sapiens, UniProt P33261); assay: CYP inhibition, CYP2C19; type: in vitro ADME
CYP2C19, sequence (P33261 whole entry): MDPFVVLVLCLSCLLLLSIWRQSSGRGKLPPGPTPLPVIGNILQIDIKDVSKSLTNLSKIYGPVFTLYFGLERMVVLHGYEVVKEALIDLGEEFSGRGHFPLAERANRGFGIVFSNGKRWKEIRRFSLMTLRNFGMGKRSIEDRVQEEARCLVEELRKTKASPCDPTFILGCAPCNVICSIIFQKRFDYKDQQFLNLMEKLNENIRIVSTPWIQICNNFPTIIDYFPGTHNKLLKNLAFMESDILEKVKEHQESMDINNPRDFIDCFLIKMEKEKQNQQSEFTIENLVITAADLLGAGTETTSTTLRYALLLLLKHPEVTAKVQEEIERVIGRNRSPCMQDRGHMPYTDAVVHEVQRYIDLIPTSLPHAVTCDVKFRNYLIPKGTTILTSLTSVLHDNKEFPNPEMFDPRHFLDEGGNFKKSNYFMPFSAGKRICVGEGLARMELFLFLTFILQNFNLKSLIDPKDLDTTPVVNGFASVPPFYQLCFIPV
Experimental: as §1, with “For PK analysis, 5 mg/kg of JH4 in 10% DMSO, 5% […] solution were intravenously injected and 10 mg/kg of JH4 in 10% NMP and 90% PEG400 solution were orally delivered. At” for “At”

CYP1A2 = biological target: T1, CYP1A2 (Homo sapiens, UniProt P05177); assay: CYP inhibition, CYP1A2; type: in vitro ADME
T1 sequence (P05177 1-516): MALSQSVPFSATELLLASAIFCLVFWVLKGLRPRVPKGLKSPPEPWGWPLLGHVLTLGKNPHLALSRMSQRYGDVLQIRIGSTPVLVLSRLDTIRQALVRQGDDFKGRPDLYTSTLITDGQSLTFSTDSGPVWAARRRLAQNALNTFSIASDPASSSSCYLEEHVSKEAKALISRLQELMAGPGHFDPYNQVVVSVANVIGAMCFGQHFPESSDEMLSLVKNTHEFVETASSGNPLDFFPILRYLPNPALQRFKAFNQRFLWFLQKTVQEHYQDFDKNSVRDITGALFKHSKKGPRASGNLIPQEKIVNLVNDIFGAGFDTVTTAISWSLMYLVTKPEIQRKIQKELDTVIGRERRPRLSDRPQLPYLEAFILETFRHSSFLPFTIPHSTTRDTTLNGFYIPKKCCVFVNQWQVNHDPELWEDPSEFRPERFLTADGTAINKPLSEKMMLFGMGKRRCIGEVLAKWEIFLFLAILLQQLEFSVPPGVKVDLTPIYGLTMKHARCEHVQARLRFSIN
Experimental: as §1

Question: With `CC1(C)Oc2cc3oc(=O)ccc3cc2C[C@@H]1OC/C=C/c1ccccc1` [SLC-D011] as the molecule, how does the fraction unbound [1] read?
Answer: The fraction unbound was 0.001.

Question: What about the remaining at 0.5 h [2] of the same molecule?
Answer: Its remaining at 0.5 h is 59.7%.

Question: What about the “Plasma concentration, Mean” value ([3]; oral 10mg/kg (n=3), 0.25 hr) of the same molecule?
Answer: The value was 41.

Question: What about the “Plasma concentration, Mean” value ([3]; oral 10mg/kg (n=3), 0.5 hr) of the same molecule?
Answer: Its value is 71.

Question: And the “Plasma concentration, Mean” value ([3]; oral 10mg/kg (n=3), 1 hr)?
Answer: Its value is 124.8.

Question: And the “Plasma concentration, Mean” value ([3]; oral 10mg/kg (n=3), 2 hr)?
Answer: The value was 441.9.

Question: And the “Plasma concentration, Mean” value ([3]; oral 10mg/kg (n=3), 4 hr)?
Answer: The value was 318.8.

Question: What about the “Plasma concentration, Mean” value ([3]; oral 10mg/kg (n=3), 8 hr) of the same molecule?
Answer: The value was 160.1.

Question: And the “Plasma concentration, Mean” value ([3]; oral 10mg/kg (n=3), 24 hr)?
Answer: The value was 7.7.

Question: And the “Plasma concentration, Mean” value ([3]; oral 20mg/kg (n=3), 0.25 hr)?
Answer: The value was 67.3.

Question: And the “Plasma concentration, Mean” value ([3]; oral 20mg/kg (n=3), 0.5 hr)?
Answer: The value was 93.1.

Question: What about the “Plasma concentration, Mean” value ([3]; oral 20mg/kg (n=3), 1 hr) of the same molecule?
Answer: Its value is 537.5.

Question: And the “Plasma concentration, Mean” value ([3]; oral 20mg/kg (n=3), 2 hr)?
Answer: Its value is 581.7.

Question: And the “Plasma concentration, Mean” value ([3]; oral 20mg/kg (n=3), 4 hr)?
Answer: The value was 899.9.

Question: And the “Plasma concentration, Mean” value ([3]; oral 20mg/kg (n=3), 8 hr)?
Answer: Its value is 574.

Question: What about the “Plasma concentration, Mean” value ([3]; oral 20mg/kg (n=3), 24 hr) of the same molecule?
Answer: Its value is 9.7.

Question: What about the Solubility in water [4] of the same molecule?
Answer: Its Solubility in water is “very low solubility in water”.

Question: And the “Stability in monoolein-based solution” value ([4]; after heating and sonicating)?
Answer: The value was “very stable in the solution”.

Question: What about the remaining at 0.5 h (Plasma stability, human; 30min) of the same molecule?
Answer: The remaining at 0.5 h was > 100%.

Question: What about the remaining at 2 h (Plasma stability, human; 120min) of the same molecule?
Answer: The remaining at 2 h was > 100%.

Question: And the remaining at 0.5 h (Plasma stability, rat; 30min)?
Answer: Its remaining at 0.5 h is 83.6%.

Question: And the remaining at 2 h (Plasma stability, rat; 120min)?
Answer: The remaining at 2 h was 75.1%.

Question: And the CYP inhibition (CYP2C19)?
Answer: The CYP inhibition was 28.8.

Question: And the CYP inhibition (CYP1A2)?
Answer: The CYP inhibition was 81.6.
